Laboratory results published in EP0326331B1, “Substituted quinolines and cinnolines” (Dow AgroSciences LLC, priority 1988, dated 1989).
Where two headings read alike, the source gives them in different places.

Legend:
Assay type in all cases: in vivo
corn rootworm = assay: Mite/insect screen, CRW; details: percent mortality; for mortality at 12 ppm / mortality at 24 ppm: read-out: CRW RESULTS %
Summary of the method: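 Corn rootworm mortality (%) was evaluated following standard exposure times. Test material was emulsified by dissolution in acetone/alcohol (1:1) containing sulfonate/nonionic emulsifier blends TOXIMUL R (23 g/L) and TOXIMUL S (13 g/L), and water-diluted to the indicated doses.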

[1] = system: Pyricularia oryzae (rice blast); assay: whole plant or invertebrate; details: for RICE BLAST: disease control rating, foliar spray on rice, 400 ppm (+++ at 100 ppm)
[2] = system: southern armyworm (Spodopetra eridania Cramer); assay: Mite/insect screen, SAW; details: Spodoptera eridania, percent mortality, read-out: SAW RESULTS %
Summary of the method: (§1)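 Percent mortality was scored after standard exposure periods, following spraying of leaves to runoff (both surfaces, 10 psi, 1 h drying) with water dilutions of compound in emulsifier-containing acetone/alcohol (50:50). Armyworms received excised treated leaves in dishes.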

[3] = system: Erysiphe graminis tritici (powdery mildew); assay: Test 1 greenhouse foliar spray screen, powdery mildew on wheat; details: for POWD MDEW: disease control rating, foliar spray on wheat, 400 ppm (+++ at 100 ppm)
[4] = system: Twospotted spider mites (Tetranychus urticae Koch); assay: Mite/insect screen, SM; details: for mortality at 200 ppm / mortality at 400 ppm: Tetranychus urticae, read-out: SM RESULTS %
Summary of the method: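 Read-out: percent mortality after standard exposure periods. Test solutions were water dilutions of compound dissolved in acetone/alcohol (50:50) with emulsifier blends; leaves were sprayed to runoff on both surfaces and air-dried for one hour before exposure.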

[5] = system: melon aphids (Aphis gossypii Glover); assay: Mite/insect screen, MA; details: percent mortality; for mortality at 200 ppm / mortality at 400 ppm: Aphis gossypii, read-out: MA RESULTS %
Summary of the method: as §1

[6] = system: Puccinia recondita tritici (leaf rust); assay: Test 1 greenhouse foliar spray screen, leaf rust on wheat; details: for LEAF RUST: disease control rating, foliar spray on wheat, 400 ppm (+++ at 100 ppm)
[7] = system: Botrytis cinerea (gray mold); assay: Test 1 greenhouse foliar spray screen, gray mold on grape berries; details: for GRAY MOLD: disease control rating, spray on grape berries, 400 ppm (+++ at 100 ppm)
plant pathogens = assay: Fungicidal efficacy against a broad spectrum of plant pathogens (summary of screen); details: summary statement in the description
[8] = system: Pseudoperonospora cubensis (downy mildew); assay: Test 1 greenhouse foliar spray screen, downy mildew on squash; details: for DOWN MDEW: disease control rating, foliar spray on squash, 400 ppm (+++ at 100 ppm)
[9] = system: Cercospora beticola (leaf spot); assay: Test 1 greenhouse foliar spray screen, leaf spot on sugar beet; details: disease control rating, foliar spray on sugar beet, 400 ppm (+++ at 100 ppm)
[10] = system: Venturia inaequalis (apple scab); assay: Test 1 greenhouse foliar spray screen, apple scab on apple seedling; details: disease control rating, foliar spray on apple seedling, 400 ppm (+++ at 100 ppm)
[11] = system: Septoria tritici (leaf blotch); assay: Test 1 greenhouse foliar spray screen, leaf blotch on wheat; details: disease control rating, foliar spray on wheat, 400 ppm (+++ at 100 ppm)
[12] = percent mortality, SAW, SM & MA RATE 200 PPM
[13] = percent mortality, SAW, SM & MA RATE 400 PPM
[14] = summary statement in the description
[15] = foliar, rate 400 ppm, foliar spray on squash

| SMILES | mortality at 12 ppm (corn rootworm; CRW RATE 12.00 PPM) [%] | mortality at 24 ppm (corn rootworm; CRW RATE 24.00 PPM) [%] | RICE BLAST [1] | mortality at 400 ppm ([2]; SAW, SM & MA RATE 400 PPM) [%] | POWD MDEW [3] | mortality at 200 ppm [4, 12] [%] | mortality at 400 ppm [4, 13] [%] | mortality at 200 ppm ([5]; SAW, SM & MA RATE 200 PPM) [%] | mortality at 400 ppm ([5]; SAW, SM & MA RATE 400 PPM) [%] | LEAF RUST [6] | GRAY MOLD [7] | activity against a broad spectrum of plant pathogens (plant pathogens) | DOWN MDEW [8] | LEAF SPOT [9] | APPL SCAB [10] | LEAF BLOT [11] | further results |
| --- | --- | --- | --- | --- | --- | --- | --- | --- | --- | --- | --- | --- | --- | --- | --- | --- | --- |
| Fc1cccc2c(NCCc3cccc(Oc4ccccc4)c3)ccnc12 [Example 39, 8-fluoro-N-[2-(3-phenoxyphenyl)ethyl]-4-quinolinamine] | 0 | 0 | +++ (90-100% control at 100 ppm) | 0 | +++ (90-100% control at 100 ppm) | 0 | 0 | 0 | 0 | +++ (90-100% control at 100 ppm) | - (0-19% control at 400 ppm) | particularly excellent activity | +++ (90-100% control at 100 ppm) |  |  |  | mortality at 200 ppm ([2]; SAW, SM & MA RATE 200 PPM): 0% |
| Fc1cccc2c(NCCc3cccc(-c4ccccc4)c3)ccnc12 [Example 72, N-[2-(1,1'-biphenyl)-3-ylethyl]-8-fluoro-4-quinolinamine] |  | 0 | +++ (90-100% control at 100 ppm) | 0 | ++ (90-100% control at 400 ppm) |  | 0 |  | 0 | +++ (90-100% control at 100 ppm) | - (0-19% control at 400 ppm) | particularly excellent activity | +++ (90-100% control at 100 ppm) |  |  |  |  |
| Fc1cccc2c(NCCc3ccc(Cl)cc3Cl)ccnc12 [Example 76, N-[2-(2,4-dichlorophenyl)ethyl]-8-fluoro-4-quinolinamine] | 0 |  | +++ (90-100% control at 100 ppm) |  | ++ (90-100% control at 400 ppm) | 0 |  | 0 |  | +++ (90-100% control at 100 ppm) | - (0-19% control at 400 ppm) | particularly excellent activity | +++ (90-100% control at 100 ppm) | - (0-19% control at 400 ppm) | + (20-89% control at 400 ppm) | +++ (90-100% control at 100 ppm) | CRW RESULTS % (corn rootworm; CRW RATE 12.00 PPM): 0%; SM RESULTS % [4, 12]: 0%; MA RESULTS % ([5]; SAW, SM & MA RATE 200 PPM): 0% |
| CC(C)c1ccc(CCNc2ccnc3c(F)cccc23)cc1 [Example 114, N-[2-[4-(i-propyl)phenyl]ethyl]-8-fluoro-4-quinolinamine] |  | 0 | +++ (90-100% control at 100 ppm) | 70 | +++ (90-100% control at 100 ppm) |  | 100 |  | 30 | +++ (90-100% control at 100 ppm) | - (0-19% control at 400 ppm) | particularly excellent activity | +++ (90-100% control at 100 ppm) | +++ (90-100% control at 100 ppm) | - (0-19% control at 400 ppm) | +++ (90-100% control at 100 ppm) | activity against rice blast [1, 14]: particularly excellent activity; activity as miticides [4, 14]: particularly excellent activity; activity against downy mildew [8, 14]: particularly excellent activity |
| Fc1cccc2c(OCCc3ccccc3C(F)(F)F)ccnc12 [Example 206, 8-fluoro-4-[2-(2-(trifluoromethyl)phenyl)ethoxy]quinoline] |  |  |  |  |  |  |  |  |  |  |  | particularly excellent activity |  |  |  |  | mortality at 24 ppm (corn rootworm; CRW rate 24.00 ppm): 0%; pest or weed control at 400 ppm ([1]; Pyricularia oryzae, foliar, read-out: RICE BLAST, Test 1, foliar spray on rice, disease control rating at 400 ppm / 100 ppm): 90 to 100%; mortality at 400 ppm [2, 15]: 0%; pest or weed control at 400 ppm ([3]; Blumeria graminis, foliar, Test 1, foliar spray on wheat, disease control rating at 400 ppm / 100 ppm, read-out: POWD MDEW): 90 to 100%; mortality at 400 ppm ([4]; foliar, percent mortality, rate 400 ppm, foliar spray on squash): 0%; mortality at 400 ppm [5, 15]: 0%; pest or weed control at 400 ppm ([6]; Puccinia recondita, foliar, Test 1, foliar spray on wheat, disease control rating at 400 ppm / 100 ppm): 90 to 100%; pest or weed control at 400 ppm ([7]; Botrytis cinerea, foliar, Test 1, spray on grape berries, disease control rating at 400 ppm / 100 ppm): 0 to 19%; pest or weed control at 400 ppm ([8]; Pseudoperonospora cubensis, foliar, Test 1, foliar spray on squash, disease control rating at 400 ppm / 100 ppm, read-out: DOWN MDEW): 90 to 100% |
